Test results from the NIST ThermoML archive (doi:10.1016/j.jct.2018.04.019).
Values joined by “and” are separate entries in the source; they are usually repeats but may differ in a detail not shown here. Identical values can stand only once.

Conditions: Liquid; for speed of sound: Frequency=5 MHz, Pulse-echo method; for mass density: Vibrating tube method

CCCCCCCCC [nonane]
Conditions	mass density	speed of sound
373.14 K, 360090 kPa	–	2160.1 m/s
373.14 K, 389860 kPa	–	2212.9 m/s
373.15 K, 1010 kPa	654.52 kg/m3	–
373.15 K, 5050 kPa	659.99 kg/m3	–
373.15 K, 10030 kPa	666.13 kg/m3	–
373.15 K, 15070 kPa	671.78 kg/m3	–
373.15 K, 20030 kPa	677.04 kg/m3	–
373.15 K, 25060 kPa	681.94 kg/m3	–
373.15 K, 30040 kPa	686.51 kg/m3	–
373.15 K, 35060 kPa	690.83 kg/m3	–
373.15 K, 40020 kPa	694.95 kg/m3	–
373.15 K, 45070 kPa	698.87 kg/m3	–
373.15 K, 50070 kPa	702.65 kg/m3	–
373.15 K, 55060 kPa	706.23 kg/m3	–
373.15 K, 60040 kPa	709.66 kg/m3	–
373.15 K, 65030 kPa	712.95 kg/m3	–
398.14 K, 1100 kPa	–	835.44 m/s and 835.46 m/s
398.14 K, 30140 kPa	–	1079.8 m/s
398.14 K, 60240 kPa	–	1254.1 m/s
398.14 K, 90220 kPa	–	1391.9 m/s
398.14 K, 120200 kPa	–	1508.5 m/s
398.14 K, 150150 kPa	–	1610.2 m/s
398.14 K, 180170 kPa	–	1701.7 m/s
398.14 K, 210020 kPa	–	1784.3 m/s
398.14 K, 240150 kPa	–	1861.3 m/s
398.14 K, 270210 kPa	–	1933.1 m/s
398.14 K, 299860 kPa	–	1999.6 m/s
398.14 K, 330010 kPa	–	2063.7 m/s
398.14 K, 360010 kPa	–	2124 m/s
398.14 K, 389950 kPa	–	2182.2 m/s
398.15 K, 1020 kPa	633.06 kg/m3	–
398.15 K, 5020 kPa	639.53 kg/m3	–
398.15 K, 5030 kPa	639.58 kg/m3	–
398.15 K, 10050 kPa	646.89 kg/m3	–
398.15 K, 15070 kPa	653.53 kg/m3	–
398.15 K, 20020 kPa	659.49 kg/m3	–
398.15 K, 25030 kPa	665.05 kg/m3	–
398.15 K, 30050 kPa	670.22 kg/m3	–
398.15 K, 35050 kPa	675.1 kg/m3	–
398.15 K, 40020 kPa	679.63 kg/m3	–
398.15 K, 45070 kPa	683.97 kg/m3	–
398.15 K, 50020 kPa	688.07 kg/m3	–
398.15 K, 55040 kPa	692.01 kg/m3	–
398.15 K, 60030 kPa	695.72 kg/m3	–
398.15 K, 65040 kPa	699.37 kg/m3	–
423.14 K, 1110 kPa	–	747.67 m/s
423.14 K, 1120 kPa	–	747.72 m/s
423.14 K, 29690 kPa	–	1013.6 m/s
423.14 K, 60210 kPa	–	1199.1 m/s
423.14 K, 90050 kPa	–	1341 m/s
423.14 K, 120570 kPa	–	1462.7 m/s
423.14 K, 150110 kPa	–	1565.4 m/s
423.14 K, 180160 kPa	–	1658.8 m/s
423.14 K, 210180 kPa	–	1744 m/s
423.14 K, 239990 kPa	–	1822.3 m/s
423.14 K, 270120 kPa	–	1895.7 m/s
423.14 K, 299980 kPa	–	1964.4 m/s
423.14 K, 330040 kPa	–	2029.4 m/s
423.14 K, 360020 kPa	–	2089.7 m/s
423.14 K, 389720 kPa	–	2146.1 m/s
423.15 K, 1020 kPa	610.45 kg/m3	–
423.15 K, 5030 kPa	618.47 kg/m3 and 618.42 kg/m3	–
423.15 K, 10030 kPa	627.15 kg/m3	–
423.15 K, 15030 kPa	634.86 kg/m3	–
423.15 K, 20040 kPa	641.8 kg/m3	–
423.15 K, 25040 kPa	648.1 kg/m3	–
423.15 K, 30020 kPa	653.92 kg/m3	–
423.15 K, 35050 kPa	659.35 kg/m3	–
423.15 K, 40020 kPa	664.4 kg/m3	–
423.15 K, 45020 kPa	669.15 kg/m3	–
423.15 K, 50040 kPa	673.7 kg/m3	–
423.15 K, 55020 kPa	677.97 kg/m3	–
423.15 K, 60030 kPa	682.03 kg/m3	–
423.15 K, 65040 kPa	685.95 kg/m3	–
448.15 K, 1000 kPa	586.37 kg/m3	–
448.15 K, 1040 kPa	–	660.9 m/s
448.15 K, 5020 kPa	596.41 kg/m3 and 596.46 kg/m3	–
448.15 K, 10040 kPa	607.05 kg/m3	–
448.15 K, 15010 kPa	616.06 kg/m3	–
448.15 K, 20010 kPa	624 kg/m3	–
448.15 K, 25040 kPa	631.27 kg/m3	–
448.15 K, 30030 kPa	637.78 kg/m3	–
448.15 K, 30440 kPa	–	960.29 m/s
448.15 K, 35030 kPa	643.8 kg/m3	–
448.15 K, 40010 kPa	649.38 kg/m3	–
448.15 K, 45050 kPa	654.67 kg/m3	–
448.15 K, 50020 kPa	659.58 kg/m3	–
448.15 K, 55040 kPa	664.24 kg/m3	–
448.15 K, 60030 kPa	668.62 kg/m3	–
448.15 K, 60490 kPa	–	1150.5 m/s
448.15 K, 65020 kPa	672.85 kg/m3	–
448.15 K, 90220 kPa	–	1296 m/s
448.15 K, 120320 kPa	–	1418.8 m/s
448.15 K, 150280 kPa	–	1525 m/s
448.15 K, 180150 kPa	–	1619.4 m/s
448.15 K, 209900 kPa	–	1704.9 m/s
448.15 K, 239920 kPa	–	1784.3 m/s
448.15 K, 270080 kPa	–	1858.4 m/s
448.15 K, 299830 kPa	–	1929.8 m/s
448.15 K, 330050 kPa	–	1995.9 m/s
448.15 K, 359980 kPa	–	2059.2 m/s
448.15 K, 390310 kPa	–	2115.1 m/s
473.15 K, 1010 kPa	–	574.55 m/s
473.15 K, 5010 kPa	573.14 kg/m3	–
473.15 K, 10040 kPa	586.15 kg/m3	–
473.15 K, 15040 kPa	596.86 kg/m3	–
473.15 K, 20020 kPa	606.05 kg/m3	–
473.15 K, 25050 kPa	614.28 kg/m3	–
473.15 K, 30020 kPa	621.6 kg/m3	–
473.15 K, 30430 kPa	–	906.04 m/s
473.15 K, 35030 kPa	628.3 kg/m3	–
473.15 K, 40050 kPa	634.51 kg/m3	–
473.15 K, 45050 kPa	640.25 kg/m3	–
473.15 K, 50040 kPa	645.6 kg/m3	–
473.15 K, 55020 kPa	650.62 kg/m3	–
473.15 K, 60010 kPa	655.39 kg/m3	–
473.15 K, 60390 kPa	–	1104.6 m/s
473.15 K, 65010 kPa	659.92 kg/m3	–
473.15 K, 90200 kPa	–	1255.4 m/s
473.15 K, 120100 kPa	–	1381 m/s
473.15 K, 150230 kPa	–	1490.6 m/s
473.15 K, 180260 kPa	–	1587.6 m/s
473.15 K, 210230 kPa	–	1675.8 m/s
473.15 K, 240070 kPa	–	1755.4 m/s
473.15 K, 270130 kPa	–	1830.8 m/s
473.15 K, 300080 kPa	–	1901.9 m/s
473.15 K, 330030 kPa	–	1964.8 m/s
473.15 K, 360070 kPa	–	2026.3 m/s
473.15 K, 390060 kPa	–	2084 m/s
